Laboratory results reported in US12552804B2, “Tricyclic heterocycles as FGFR inhibitors” (Incyte Corporation, priority 2019, dated 2026).

target: wild-type un-phosphorylated FGFR3 protein (Homo sapiens, UniProt P22607); test: FGFR Enzymatic Assay (FRET detection of peptide phosphorylation); type: biochemical; conditions: pre-incubated for 4 hours, read-out: FGFR3_Ki
Procedure: The inhibitor potency of the exemplified compounds was determined in an enzyme discontinuous assay that measures peptide phosphorylation using FRET measurements to detect product formation. Inhibitors were serially diluted in DMSO and a volume of 0.2 μL was transferred to the wells of a 384-well plate. A 5 μL/well volume of enzyme isoforms of FGFR (−1, −2, −3 wild-type and mutant isoforms, −4) including phosphorylated and un-phosphorylated proteins diluted in assay buffer (50 mM HEPES, 10 mM MgCl2, 1 mM EGTA, 0.01% Tween-20, 5 mM DTT, pH 7.5) was added to the plate and pre-incubated with inhibitor for 5 to 15 minutes at ambient temperature. Appropriate controls (enzyme blank and enzyme with no inhibitor) were included on the plate. […] The ATP Km values were pre-determined in a separate series of experiments. The reaction plate was incubated at 25° C. for 1 hr and the reactions were ended with the addition of 5 μL/well of quench solution (50 mM Tris, 150 mM NaCl, 0.5 mg/mL BSA, pH 7.8; 45 mM EDTA, 600 nM staurosporin, with Perkin Elmer Lance Reagents at 3.75 nM Eu-antibody PY20 and 180 nM APC-Streptavidin). The plate was allowed to equilibrate for ˜10 minutes at ambient temperature before scanning on a PheraStar plate reader (BMG Labtech) instrument.
Either GraphPad prism or XLfit was used to analyze the data. The IC50 values were derived by fitting the data to a four parameter logistic equation producing a sigmoidal dose-response curve with a variable Hill coefficient. Prism equation: Y=Bottom+(Top−Bottom)/(1+10^((LogIC50−X)*Hill slope)); XLfit equation: Y=(A+((B−A)/(1+((X/C)^D)))) where X is the logarithm of inhibitor concentration and Y is the response.
The data in Table 1 was measured in wild-type un-phosphorylated FGFR3 protein.

wild-type un-phosphorylated FGFR3 protein, sequence (P22607 23-806): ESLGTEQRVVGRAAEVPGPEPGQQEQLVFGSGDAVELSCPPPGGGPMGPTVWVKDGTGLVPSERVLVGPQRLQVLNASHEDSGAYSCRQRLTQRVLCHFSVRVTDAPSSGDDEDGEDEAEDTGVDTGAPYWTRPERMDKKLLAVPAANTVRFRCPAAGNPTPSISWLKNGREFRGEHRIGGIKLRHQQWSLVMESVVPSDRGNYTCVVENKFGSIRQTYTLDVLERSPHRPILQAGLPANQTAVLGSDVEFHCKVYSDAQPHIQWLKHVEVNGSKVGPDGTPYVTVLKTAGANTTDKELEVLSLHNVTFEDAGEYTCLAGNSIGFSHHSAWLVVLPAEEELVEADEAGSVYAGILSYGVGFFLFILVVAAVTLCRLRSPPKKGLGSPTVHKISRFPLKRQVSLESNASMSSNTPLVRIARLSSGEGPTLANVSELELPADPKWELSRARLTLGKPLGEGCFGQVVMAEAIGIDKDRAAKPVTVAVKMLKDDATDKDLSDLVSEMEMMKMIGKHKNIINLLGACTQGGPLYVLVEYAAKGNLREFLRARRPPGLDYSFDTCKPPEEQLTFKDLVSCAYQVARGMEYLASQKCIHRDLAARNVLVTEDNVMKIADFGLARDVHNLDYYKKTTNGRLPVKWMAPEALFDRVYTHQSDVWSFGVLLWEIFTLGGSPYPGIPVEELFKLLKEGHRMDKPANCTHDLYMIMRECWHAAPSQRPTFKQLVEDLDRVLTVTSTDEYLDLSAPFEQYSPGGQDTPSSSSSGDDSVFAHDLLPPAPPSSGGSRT

Structure (SMILES) | Ki [µM]
Cc1c(-c2c(F)cccc2C#N)nc2c3cc(-c4cnn([C@H]5CCN(C(=O)CO)C5)c4)cnc3ccn12 [Example 27, (S)-3-Fluoro-2-(9-(1-(1-(2-hydroxyacetyl)pyrrolidin-3-yl)-1H-pyrazol-4-yl)-3-methylimidazo[2,1-f][1,6]naphthyridin-2-yl)benzonitrile] | 0.01 to 0.1
COc1cccc(F)c1-c1nc2c3cc(-c4cnn([C@H]5CCN(C(=O)CO)C5)c4)cnc3ccn2c1C [Example 28, (S)-1-(3-(4-(2-(2-Fluoro-6-methoxyphenyl)-3-methylimidazo[2,1-f][1,6]naphthyridin-9-yl)-1H-pyrazol-1-yl)pyrrolidin-1-yl)-2-hydroxyethan-1-one] | 0.01 to 0.1
Cc1cccc(-c2nc3c4cc(-c5cnn(C)c5)cnc4ccn3c2C)c1C [Example 29, 2-(2,3-Dimethylphenyl)-3-methyl-9-(1-methyl-1H-pyrazol-4-yl)imidazo[2,1-f][1,6]naphthyridine] | 0.01 to 0.1
Cc1cc(CO)ccc1-c1nc2c3cc(-c4cnn(C)c4)cnc3ccn2c1C [Example 30, (3-Methyl-4-(3-methyl-9-(1-methyl-1H-pyrazol-4-yl)imidazo[2,1-f][1,6]naphthyridin-2-yl)phenyl)methanol] | 0.01 to 0.1
Cc1c(-c2c(Cl)cccc2Cl)nc2c3cc(-c4cnn(C)c4)c(O)nc3ccn12 [Example 31, 2-(2,6-Dichlorophenyl)-3-methyl-9-(1-methyl-1H-pyrazol-4-yl)imidazo[2,1-f][1,6]naphthyridin-8-ol] | 0.01 to 0.1
Cc1c(-c2c(Cl)cccc2Cl)nc2c3c(O[C@H]4CCOC4)c(-c4cnn(C)c4)cnc3ccn12 [Example 32, (S)-2-(2,6-Dichlorophenyl)-3-methyl-9-(1-methyl-1H-pyrazol-4-yl)-10-((tetrahydrofuran-3-yl)oxy)imidazo[2,1-f][1,6]naphthyridine] | 0.1 to 0.4
Cc1c(-c2c(Cl)cccc2Cl)nc2c3cc(-c4cnn(C)c4)c(N(C)C)nc3ccn12 [Example 33, 2-(2,6-Dichlorophenyl)-N,N,3-trimethyl-9-(1-methyl-1H-pyrazol-4-yl)imidazo[2,1-f][1,6]naphthyridin-8-amine] | 0.01 to 0.1
C=CC(=O)Nc1ccc(Cl)c(-c2nc3c4cc(-c5cnn(C)c5)cnc4ccn3c2C)c1Cl [Example 34, N-(2,4-Dichloro-3-(3-methyl-9-(1-methyl-1H-pyrazol-4-yl)imidazo[2,1-f][1,6]naphthyridin-2-yl)phenyl)acrylamide] | < 0.01
C=CC(=O)Nc1cccc(-c2nc3c4cc(-c5cnn(C)c5)cnc4ccn3c2C)c1 [Example 35, N-(3-(3-Methyl-9-(1-methyl-1H-pyrazol-4-yl)imidazo[2,1-f][1,6]naphthyridin-2-yl)phenyl)acrylamide] | 0.01 to 0.1
C=CC(=O)Nc1ccccc1-c1nc2c3cc(-c4cnn(C)c4)cnc3ccn2c1C [Example 36, N-(2-(3-Methyl-9-(1-methyl-1H-pyrazol-4-yl)imidazo[2,1-f][1,6]naphthyridin-2-yl)phenyl)acrylamide] | 0.1 to 0.4
Cc1c(-c2c(Cl)cccc2Cl)nc2c3cc(-c4cnn(C5CN(C(=O)C6(N)CC6)C5)c4)cnc3ccn12 [Example 37, (1-Aminocyclopropyl)(3-(4-(2-(2,6-dichlorophenyl)-3-methylimidazo[2,1-f][1,6]naphthyridin-9-yl)-1H-pyrazol-1-yl)azetidin-1-yl)methanone] | < 0.01
Cc1c(-c2c(Cl)cccc2Cl)nc2c3cc(-c4cnn(C5CN(C(=O)Cn6ccnc6)C5)c4)cnc3ccn12 [Example 38, 1-(3-(4-(2-(2,6-Dichlorophenyl)-3-methylimidazo[2,1-f][1,6]naphthyridin-9-yl)-1H-pyrazol-1-yl)azetidin-1-yl)-2-(1H-imidazol-1-yl)ethan-1-one] | < 0.01

Continued, values first:

Ki [µM] | Structure (SMILES)
< 0.01 | Cc1c(-c2c(Cl)cccc2Cl)nc2c3cc(-c4cnn(C5CN(C(=O)c6cocn6)C5)c4)cnc3ccn12 [Example 39, (3-(4-(2-(2,6-Dichlorophenyl)-3-methylimidazo[2,1-f][1,6]naphthyridin-9-yl)-1H-pyrazol-1-yl)azetidin-1-yl)(oxazol-4-yl)methanone]
< 0.01 | Cc1c(-c2c(Cl)cccc2Cl)nc2c3cc(-c4cnn(C5CN(C(=O)C6(N)CCOCC6)C5)c4)cnc3ccn12 [Example 40, (4-Aminotetrahydro-2H-pyran-4-yl)(3-(4-(2-(2,6-dichlorophenyl)-3-methylimidazo[2,1-f][1,6]naphthyridin-9-yl)-1H-pyrazol-1-yl)azetidin-1-yl)methanone]
< 0.01 | Cc1c(-c2c(Cl)cccc2Cl)nc2c3cc(-c4cnn(C5CN(C(=O)CC#N)C5)c4)cnc3ccn12 [Example 41, 3-(3-(4-(2-(2,6-Dichlorophenyl)-3-methylimidazo[2,1-f][1,6]naphthyridin-9-yl)-1H-pyrazol-1-yl)azetidin-1-yl)-3-oxopropanenitrile]
< 0.01 | O=C(O)c1ccc(Cn2cc(-c3cnc4ccn5cc(-c6c(Cl)cccc6Cl)nc5c4c3)cn2)cc1F [Example 42, 4-((4-(2-(2,6-Dichlorophenyl)imidazo[2,1-f][1,6]naphthyridin-9-yl)-1H-pyrazol-1-yl)methyl)-2-fluorobenzoic acid]
0.01 to 0.1 | CN(C)C(=O)c1ccc(-n2cc(-c3cnc4ccn5cc(-c6c(Cl)cccc6Cl)nc5c4c3)cn2)cc1 [Example 43, 4-(4-(2-(2,6-Dichlorophenyl)imidazo[2,1-f][1,6]naphthyridin-9-yl)-1H-pyrazol-1-yl)-N,N-dimethylbenzamide]
< 0.01 | COCC(=O)N[C@H]1CC[C@H](n2cc(-c3cnc4ccn5cc(-c6c(Cl)cccc6Cl)nc5c4c3)cn2)CC1 [Example 44, N-((1r,4r)-4-(4-(2-(2,6-Dichlorophenyl)imidazo[2,1-f][1,6]naphthyridin-9-yl)-1H-pyrazol-1-yl)cyclohexyl)-2-methoxyacetamide]
< 0.01 | CN(C)C(=O)N[C@H]1CC[C@H](n2cc(-c3cnc4ccn5cc(-c6c(Cl)cccc6Cl)nc5c4c3)cn2)CC1 [Example 45, 3-((1r,4r)-4-(4-(2-(2,6-Dichlorophenyl)imidazo[2,1-f][1,6]naphthyridin-9-yl)-1H-pyrazol-1-yl)cyclohexyl)-1,1-dimethylurea]
< 0.01 | CC(=O)N1CC2(CCC(n3cc(-c4cnc5ccn6cc(-c7c(Cl)cccc7Cl)nc6c5c4)cn3)CC2)C1 [Example 46, 1-(7-(4-(2-(2,6-Dichlorophenyl)imidazo[2,1-f][1,6]naphthyridin-9-yl)-1H-pyrazol-1-yl)-2-azaspiro[3.5]nonan-2-yl)ethan-1-one]
< 0.01 | Cc1c(-c2c(Cl)cccc2Cl)nc2c3cc(-c4cnn(C5CCOCC5)c4)cnc3ccn12 [Example 47, 2-(2,6-Dichlorophenyl)-3-methyl-9-(1-(tetrahydro-2H-pyran-4-yl)-1H-pyrazol-4-yl)imidazo[2,1-f][1,6]naphthyridine]
< 0.01 | Cc1c(-c2c(Cl)cccc2Cl)nc2c3cc(-c4cnn([C@H]5CC[C@H](O)CC5)c4)cnc3ccn12 [Example 48, (1r,4r)-4-(4-(2-(2,6-Dichlorophenyl)-3-methylimidazo[2,1-f][1,6]naphthyridin-9-yl)-1H-pyrazol-1-yl)cyclohexan-1-ol]
< 0.01 | Cc1c(-c2c(Cl)cccc2Cl)nc2c3cc(-c4cnn(C5CCC(C)(C(=O)O)CC5)c4)cnc3ccn12 (centres unmarked) [Example 49, 4-(4-(2-(2,6-Dichlorophenyl)-3-methylimidazo[2,1-f][1,6]naphthyridin-9-yl)-1H-pyrazol-1-yl)-1-methylcyclohexane-1-carboxylic acid]
